From patent US20120190752A1, “EXO-S-MECAMYLAMINE METHOD, USE, AND COMPOUND FOR TREATMENT” (Targacept Inc., priority 2009, published 2012)

Test system: subjects with major depressive disorder (MDD) who were inadequate responders to citalopram
Assay: MADRS total score, Phase 2b add-on trial
Assay type: in vivo, human
Text: The Montgomery-Asberg Depression Rating Scale (abbreviated MADRS) is a ten-item diagnostic questionnaire which psychiatrists may use to measure the severity of depressive episodes in patients with mood disorders (Montgomery et al. 1979). It was designed in 1979 by British and Swedish researchers as an adjunct to the Hamilton Rating Scale for Depression (HAMD) which would be more sensitive to the changes brought on by antidepressants and other forms of treatment than the HAMD. There is, however, a high degree of statistical correlation between scores on the two measures. In more detail, a multi-center double-blind, randomized, placebo-controlled, parallel group, flexible dose titration study of TC-5214 as adjunctive therapy in subjects with major depressive disorder (MDD) who were inadequate responders to citalopram was conducted in centers in the US and India. The study consisted of a screening period, baseline/washout period, open-label phase, double-blind phase, and a follow-up visit. Subject participation in the study could continue for up to 16 weeks of treatment. Following a washout period of up to 28 days for other antidepressants, subjects with MDD and a MADRS total score >/=28 and a Clinical Global Impression-Severity (CGI-S) score >/=4 were enrolled on Day 1 into an open-label citalopram-only phase of the study. This phase lasted 8 weeks, with citalopram (CIT) dose increased from a once-daily dose of 20 mg (Day 1 through Week 4) to 40 mg (Week 4 through Week 8). A total of 579 subjects entered the open-label citalopram phase. At Week 8, subjects who tolerated 40 mg CIT, but whose MADRS score was reduced <50% from baseline and no lower than 17, and CGI-S≧4, were considered inadequate responders. These subjects (n=270) were randomized in a double-blind fashion to receive either placebo or TC-5214-23 as add-on therapy to continued CIT. The double-blind phase of the study also lasted 8 weeks (Week 8 to Week 16). Study drug, TC-5214-23 or placebo, was started at 2 mg daily (1 mg twice per day [BID] dosing), added on to continuing CIT (40 mg PO qd). After 2 weeks of treatment, the dose of TC-5214 could be increased to 4 mg (2 mg BID) or continued unchanged, with up-titration based upon good tolerability and inadequate therapeutic response. After a further 2 weeks, the dose of TC-5214 could be increased again to 8 mg (4 mg BID) if judged appropriate by the investigator, based upon good tolerability and inadequate therapeutic response. At any time during the double-blind phase of the study, placebo or TC-5214-23 could be reduced to the previous dose level following the emergence of unacceptable adverse events (AEs). […] At this follow-up, any signs or symptoms of relapse were evaluated. If a subject was prematurely discontinued from the study between Week 8 and Week 16 for any reason, the investigator was to make every effort to perform all evaluations as per protocol, assuming the subject had reached the end of the double-blind add-on treatment phase. These evaluations were to be made as soon as possible and within 2 weeks of discontinuation. […] There was no meaningful difference in results as a function of age, gender, site, or smoking status. With regard to efficacy endpoints, the following tables present efficacy used in the ITT (Intent-to-Treat) and PP (Per Protocol) populations unless otherwise specific. The primary inference was based upon Week 16 visit using the ITT population. Change from baseline was obtained by subtracting the baseline values from the individual on-treatment values. Change from Week 16 was obtained by subtracting the Week 16 values from the individual follow-up visit (Week 18/19) values. If either the baseline or Week 16 or on-treatment or follow-up value was missing, the change from baseline or Week 16 value was also set to missing. […]

[1] = ITT (N = 133), Double Blind Week 16
[2] = ITT (N = 133), Double Blind Week 18 (Follow-up)
[3] = ITT and PP populations, result in words
[4] = ITT population, Week 8 (double-blind baseline) to Week 16
[5] = ITT, Double Blind Week 18 LOCF (Follow-up), change from Week 16
[6] = PP (N = 113), Double Blind Week 16
[7] = PP (N = 113), Double Blind Week 18 (Follow-up)
[8] = PP, Double Blind Week 16 LOCF (change from Week 8)
[9] = PP, Double Blind Week 18 LOCF (Follow-up), change from Week 16

CNC1(C)C2CCC(C2)C1(C)C (stereo in doubt) [TC-5214, (S)—N,2,3,3-tetramethylnorbornan-2-amine]
MADRS reduction from baseline ≧50%: Subjects with Response (number) [1]: 89 | MADRS reduction from baseline ≧50%: Subjects with Response (percentage) [1]: (67%) | MADRS reduction from baseline ≧50%: Subjects without Response (number) [1]: 44 | MADRS reduction from baseline ≧50%: Subjects without Response (percentage) [1]: (33%) | MADRS ≦10: Subjects with Remission (number) [1]: 69 | MADRS ≦10: Subjects with Remission (percentage) [1]: (52%) | MADRS ≦10: Subjects without Remission (number) [1]: 64 | MADRS ≦10: Subjects without Remission (percentage) [1]: (48%) | MADRS ≦12: Subjects with Remission (number) [1]: 77 | MADRS ≦12: Subjects with Remission (percentage) [1]: (58%) | MADRS ≦12: Subjects without Remission (number) [1]: 56 | MADRS ≦12: Subjects without Remission (percentage) [1]: (42%) | MADRS reduction from baseline ≧50%: Subjects with Response (number) [2]: 94 | MADRS reduction from baseline ≧50%: Subjects with Response (percentage) [2]: (71%) | MADRS reduction from baseline ≧50%: Subjects without Response (number) [2]: 39 | MADRS reduction from baseline ≧50%: Subjects without Response (percentage) [2]: (29%) | MADRS ≦10: Subjects with Remission (number) [2]: 73 | MADRS ≦10: Subjects with Remission (percentage) [2]: (55%) | MADRS ≦10: Subjects without Remission (number) [2]: 60 | MADRS ≦10: Subjects without Remission (percentage) [2]: (45%) | MADRS ≦12: Subjects with Remission (number) [2]: 86 | MADRS ≦12: Subjects with Remission (percentage) [2]: (65%) | MADRS ≦12: Subjects without Remission (number) [2]: 47 | MADRS ≦12: Subjects without Remission (percentage) [2]: (35%) | MADRS remission (≦10 or ≦12) proportion compared with placebo [3]: higher proportion of subjects meeting the remission criteria | MADRS responders (reduction from baseline ≧50%) proportion compared with placebo [3]: higher proportion of responders | MADRS total score change from baseline compared with placebo [3]: statistically significant decreases (improvements) | MADRS Total Score: Adjusted Mean Change TC-5214—Placebo (SD) [4]: −7.54 (10.13) | MADRS Total Score: Effect Size [4]: 0.74 | MADRS Mean Difference between TC-5214 and Placebo (ITT, Double Blind Week 16 LOCF (change from Week 8)): 7.54 | MADRS Adjusted Mean change [5]: −0.87 | MADRS Mean Difference between TC-5214 and Placebo [5]: −0.54 | MADRS Difference vs Placebo + CIT (ITT, Week 8 to Week 16 LOCF): −7.45 | MADRS Adj. Mean change (ITT, change from Week 8 (double-blind baseline) to Week 16 LOCF, add-on to citalopram): −17.26 | MADRS reduction from baseline ≧50%: Subjects with Response (number) [6]: 84 | MADRS reduction from baseline ≧50%: Subjects with Response (percentage) [6]: (74%) | MADRS reduction from baseline ≧50%: Subjects without Response (number) [6]: 29 | MADRS reduction from baseline ≧50%: Subjects without Response (percentage) [6]: (26%) | MADRS ≦10: Subjects with Remission (number) [6]: 67 | MADRS ≦10: Subjects with Remission (percentage) [6]: (59%) | MADRS ≦10: Subjects without Remission (number) [6]: 46 | MADRS ≦10: Subjects without Remission (percentage) [6]: (41%) | MADRS ≦12: Subjects with Remission (number) [6]: 72 | MADRS ≦12: Subjects with Remission (percentage) [6]: (64%) | MADRS ≦12: Subjects without Remission (number) [6]: 41 | MADRS ≦12: Subjects without Remission (percentage) [6]: (36%) | MADRS reduction from baseline ≧50%: Subjects with Response (number) [7]: 89 | MADRS reduction from baseline ≧50%: Subjects with Response (percentage) [7]: (79%) | MADRS reduction from baseline ≧50%: Subjects without Response (number) [7]: 24 | MADRS reduction from baseline ≧50%: Subjects without Response (percentage) [7]: (21%) | MADRS ≦10: Subjects with Remission (number) [7]: 70 | MADRS ≦10: Subjects with Remission (percentage) [7]: (62%) | MADRS ≦10: Subjects without Remission (number) [7]: 43 | MADRS ≦10: Subjects without Remission (percentage) [7]: (38%) | MADRS ≦12: Subjects with Remission (number) [7]: 81 | MADRS ≦12: Subjects with Remission (percentage) [7]: (72%) | MADRS ≦12: Subjects without Remission (number) [7]: 32 | MADRS ≦12: Subjects without Remission (percentage) [7]: (28%) | MADRS Adjusted Mean change [8]: −19.34 | MADRS Mean Difference between TC-5214 and Placebo [8]: 7.97 | MADRS Adjusted Mean change [9]: −1.10 | MADRS Mean Difference between TC-5214 and Placebo [9]: −0.20
